Experimental data from publication PMC3419191, “Identification of Novel Piperazinylquinoxaline Derivatives as Potent Phosphoinositide 3-Kinase (PI3K) Inhibitors” (PLoS ONE, 2012).

Columns and labels:
KB = assay: MTT assay, antiproliferative activity against KB cells; format: cell-based; conditions: Homo sapiens, 72 h, mean of at least two determinations
Description: (§1) All synthesized target compounds were firstly tested for their antiproliferative activity against five human cancer cell lines, PC3, A549, HCT116, HL60, and KB, using MTT assay.
(§2) Human prostate cancer PC3 cells, lung adenocarcinoma epithelial A549 cells, colon cancer HCT116 cells, promyelocytic leukemia HL60 cells and nasopharyngeal carcinoma KB cells were obtained from the cell bank of the Institute of Biochemistry and Cell Biology, Chinese Academy of Sciences (Shanghai, China). The inhibitory activity of target compounds against tested cancer cell lines was measured using the MTT assay. PC3, A549, HCT116, HL60, and KB cancer cell lines were cultured in RPMI-1640 medium (Invitrogen, Carlsbad, CA, USA) with heat-inactivated 10% fetal bovine serum, penicillin (100 units/mL) and streptomycin (100 µg/mL) and incubated in an atmosphere with 20% oxygen and 5% carbon dioxide at 37°C. All tested compounds were dissolved in DMSO at concentrations of 10.0 mg/mL and diluted to appropriate concentrations. Cells were plated in 96-well plates for 24 h and subsequently treated with different concentrations of all tested compounds for 72 h. Viable cells were determined using 3-(4,5-dimethylthiazol-2-yl)-2,5-diphenyltetrazolium bromide assay kit (MTT, Sigma) according to operation instructions provided by the manufacturer. The concentration of drug causing 50% inhibition in absorbance compared with control cells (IC50) was calculated using the software of dose-effect analysis with microcomputers.

A549 = assay: MTT assay, antiproliferative activity against A549 cells; format: cell-based; conditions: Homo sapiens, 72 h, mean of at least two determinations
Description: as §1, §2

PC3 = assay: MTT assay, antiproliferative activity against PC3 cells; format: cell-based; conditions: Homo sapiens, PC-3, 72 h, mean of at least two determinations
Description: as §1, §2

HL60 = assay: MTT assay, antiproliferative activity against HL60 cells; format: cell-based; conditions: Homo sapiens, HL-60, 72 h, mean of at least two determinations
Description: as §1, §2

recombinant human PI3Kα = target: T1, recombinant human PI3Kα (Homo sapiens, UniProt P42336); assay: Competitive fluorescence polarization (FP) assay, inhibition of PI3Kα; format: biochemical; conditions: for Binding efficiency index (BEI): BEI = pIC50 (M)/MW (kDa), PI3Kα
T1 construct: purchased Echelon Biosciences (Salt Lake City, UT, USA) E-2000
Experimental: Selected compounds were then tested for their enzymatic inhibitory activity against PI3Kα using a competitive fluorescence polarization (FP) assay to determine the molecular target of synthesized compounds [21].
The PI3Kα inhibitory test was determined using a competitive fluorescence polarization kinase activity assay. PI3K fluorescence polarization assay kit (catalog No. K-1100) and recombinant human PI3Kα (catalog No. E-2000) were purchased from Echelon Biosciences (Salt Lake City, UT, USA). PI3K reactions were performed in 5 mM HEPES, Ph 7, 2.5 mM MgCl2, 10 mM DTT and 50 µM ATP, using diC8-phosphatidylinositol-4, 5-bisphosphate (PIP2) as the substrate, and the final reaction volumes were 10 µL. For evaluation of the PI3Kα inhibitory activity of target compounds, 50 ng enzyme and 10 µM substate were used per 10 µL reaction volume with the concentrations of inhibitors ranging from 3.2 nM to 10 µM. After incubating for 3 h at room temperature, reactions were quenched by adding chelators. A mixture of phosphoinositide binding protein was added and mixed, followed by the addition of a fluorophore-labeled phosphoinositide tracer. Samples were then mixed in 384-well black Corning nonbinding plates (Corning, NY, USA) and incubated in a dark environment for 1 h to equilibrate. Finally, polarization values were measure using red fluorophores with appropriate filters to determine the extent of enzyme activity in the reaction.

HCT116 = assay: MTT assay, antiproliferative activity against HCT116 cells; format: cell-based; conditions: Homo sapiens, HCT-116, 72 h, mean of at least two determinations
Description: as §1, §2

[1] = FP assay, 50 µM ATP, mean of at least two determinations

T1 sequence (P42336 whole entry): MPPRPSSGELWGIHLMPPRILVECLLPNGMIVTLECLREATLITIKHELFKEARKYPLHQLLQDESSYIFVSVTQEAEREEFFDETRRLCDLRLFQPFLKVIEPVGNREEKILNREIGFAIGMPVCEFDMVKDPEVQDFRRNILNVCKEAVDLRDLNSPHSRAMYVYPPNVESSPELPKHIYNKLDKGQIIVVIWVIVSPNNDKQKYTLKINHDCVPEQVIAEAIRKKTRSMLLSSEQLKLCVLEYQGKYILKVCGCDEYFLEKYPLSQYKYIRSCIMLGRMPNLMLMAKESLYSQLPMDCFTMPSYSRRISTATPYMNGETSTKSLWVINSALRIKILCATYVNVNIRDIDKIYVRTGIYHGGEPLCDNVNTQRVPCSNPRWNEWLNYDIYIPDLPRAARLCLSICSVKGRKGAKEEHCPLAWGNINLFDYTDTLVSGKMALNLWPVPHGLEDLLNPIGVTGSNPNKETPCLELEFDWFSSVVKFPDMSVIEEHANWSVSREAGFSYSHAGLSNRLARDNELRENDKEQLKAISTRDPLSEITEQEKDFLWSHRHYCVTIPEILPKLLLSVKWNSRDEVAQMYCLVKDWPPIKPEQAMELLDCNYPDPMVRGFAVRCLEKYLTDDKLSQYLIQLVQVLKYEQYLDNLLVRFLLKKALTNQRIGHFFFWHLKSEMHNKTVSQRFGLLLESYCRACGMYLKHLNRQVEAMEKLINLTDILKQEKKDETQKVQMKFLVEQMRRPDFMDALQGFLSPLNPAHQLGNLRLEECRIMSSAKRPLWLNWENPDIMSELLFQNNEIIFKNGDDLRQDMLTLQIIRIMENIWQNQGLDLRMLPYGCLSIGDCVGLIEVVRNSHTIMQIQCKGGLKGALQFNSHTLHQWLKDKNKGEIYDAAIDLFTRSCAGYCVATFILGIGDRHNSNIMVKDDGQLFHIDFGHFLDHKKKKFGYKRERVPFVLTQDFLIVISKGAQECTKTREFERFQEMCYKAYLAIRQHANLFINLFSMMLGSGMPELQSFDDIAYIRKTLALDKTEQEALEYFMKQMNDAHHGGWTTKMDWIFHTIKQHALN
T1 sequence (P27986 whole entry partner): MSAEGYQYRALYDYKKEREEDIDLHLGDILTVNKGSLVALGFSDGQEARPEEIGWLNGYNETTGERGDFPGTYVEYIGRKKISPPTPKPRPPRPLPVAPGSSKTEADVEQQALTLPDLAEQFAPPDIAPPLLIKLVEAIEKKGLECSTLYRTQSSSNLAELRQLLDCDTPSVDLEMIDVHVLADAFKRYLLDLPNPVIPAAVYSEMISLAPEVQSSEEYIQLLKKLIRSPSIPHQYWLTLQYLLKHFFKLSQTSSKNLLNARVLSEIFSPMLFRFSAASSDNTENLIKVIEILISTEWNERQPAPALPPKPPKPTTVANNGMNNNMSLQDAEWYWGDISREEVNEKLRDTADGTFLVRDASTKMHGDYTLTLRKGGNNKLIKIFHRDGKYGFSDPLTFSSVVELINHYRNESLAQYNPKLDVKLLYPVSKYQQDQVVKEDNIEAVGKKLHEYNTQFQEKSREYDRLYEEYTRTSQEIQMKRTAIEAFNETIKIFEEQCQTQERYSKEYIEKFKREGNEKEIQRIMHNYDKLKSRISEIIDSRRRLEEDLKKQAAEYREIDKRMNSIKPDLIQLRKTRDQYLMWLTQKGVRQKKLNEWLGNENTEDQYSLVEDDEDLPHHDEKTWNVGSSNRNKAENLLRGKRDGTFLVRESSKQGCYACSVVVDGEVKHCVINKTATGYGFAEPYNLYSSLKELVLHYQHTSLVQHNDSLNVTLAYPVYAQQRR

| Structure (SMILES) | IC50 (KB) [µM] | melting point [°C] | IC50 (A549) [µM] | IC50 (PC3) [µM] | IC50 (HL60) [µM] | IC50 (recombinant human PI3Kα; [1]) [µM] | IC50 (HCT116) [µM] | Binding efficiency index (BEI) (recombinant human PI3Kα) | IC50 (recombinant human PI3Kα; as used for BEI, Table 5) [µM] |
| --- | --- | --- | --- | --- | --- | --- | --- | --- | --- |
| CN1CCN(c2nc3ccccc3nc2S(=O)(=O)c2ccccc2)CC1 [Compound 14, 2-(4-Methylpiperazin-1-yl)-3-(phenylsulfonyl)quinoxaline] | 4.54 | 154 to 157 | 14 | 2.94 | 0.77 | > 10 | 2.78 |  |  |
| CC(=O)N1CCN(c2nc3ccccc3nc2S(=O)(=O)c2ccccc2)CC1 [Compound 9, 2-(4-Acetylpiperazin-1-yl)-3-(phenylsulfonyl)quinoxaline] | 4.42 | 144 to 146 | 1.02 | 2.25 | 2.43 | 1.09 | 1.84 | 15.1 |  |
| O=C(c1ccc(Cl)cc1)N1CCN(c2nc3ccccc3nc2S(=O)(=O)c2ccccc2)CC1 [Compound 34, 2-(4-(4-Chlorobenzoyl)piperazin-1-yl)-3-(phenylsulfonyl)quinoxaline] | 0.93 | 217 to 219 | 3.86 | 2.74 | 5.84 | 2.75 | 25.4 | 11.3 |  |
| COc1ccc(S(=O)(=O)c2nc3ccccc3nc2N2CCNC(C)C2)cc1 (stereo not drawn) [Compound 26, 2-(3-Methylpiperazin-1-yl)-3-(4-methoxyphenylsulfonyl)quinoxaline] | 8.53 | 130 to 133 | 1.65 | 0.93 | 0.16 | 0.24 | 0.54 | 16.6 | 0.24 |
| Cc1ccc(S(=O)(=O)c2nc3ccccc3nc2N2CCNC(C)C2)cc1 (stereo not drawn) [Compound 25, 2-(3-Methylpiperazin-1-yl)-3-(4-methylphenylsulfonyl)quinoxaline] | 9.18 | 136 to 138 | 1.6 | 2.03 | 0.09 | 0.65 | 1.17 | 16.2 |  |
| NC(=O)C1CCN(c2nc3ccccc3nc2S(=O)(=O)c2ccccc2)CC1 [Compound 4, 2-(4-Carbamoylpiperidin-1-yl)-3-(phenylsulfonyl)Fquinoxaline] | 13.7 | 170 to 174 | 26.7 | 1.2 | 0.22 | > 10 | 1.57 |  |  |
| O=C(c1ccccc1)N1CCN(c2nc3ccccc3nc2S(=O)(=O)c2ccccc2)CC1 [Compound 29, 2-(4-Benzoylpiperazin-1-yl)-3-(phenylsulfonyl)quinoxaline] | 1.22 | 224 to 226 | 5.2 | 4.99 | 7.2 | > 10 | 42.4 |  |  |
| O=S(=O)(c1ccc(Br)cc1)c1nc2ccccc2nc1N1CCNCC1 [Compound 22, 2-(Piperazin-1-yl)-3-(4-bromophenylsulfonyl)quinoxaline] | 9.89 | 92 to 96 | 0.75 | 0.36 | 0.1 | 0.04 | 0.19 | 17.0 |  |
| CS(=O)(=O)N1CCN(c2nc3ccccc3nc2S(=O)(=O)c2ccc(F)cc2)CC1 [Compound 43, 2-(4-(Methylsulfonyl)piperazin-1-yl)-3-(4-fluorophenylsulfonyl)quinoxaline] |  | 206 to 207 | 1.26 | 3.3 |  | 1.01 | 0.33 | 13.3 |  |
| Cc1ccc(S(=O)(=O)N2CCN(c3nc4ccccc4nc3S(=O)(=O)c3ccccc3)CC2)cc1 [Compound 44, 2-(4-(4-Methylphenylsulfonyl)piperazin-1-yl)-3-(phenylsulfonyl)quinoxaline] | 3.08 | 161 to 163 | 24.3 | 2.19 | 6.4 | > 10 | 7.49 |  |  |
| CN1CCN(c2nc3ccccc3nc2S(=O)(=O)c2ccc(Br)cc2)CC1 [Compound 17, 2-(4-Methylpiperazin-1-yl)-3-(4-bromophenylsulfonyl)quinoxaline] | 0.87 | 141 to 142 | 5.18 | 1.01 | 0.28 | 4.25 | 2.31 | 12.0 |  |
| CC1CN(c2nc3ccccc3nc2S(=O)(=O)c2ccc(Br)cc2)CCN1 (stereo not drawn) [Compound 27, 2-(3-Methylpiperazin-1-yl)-3-(4-bromophenylsulfonyl)quinoxaline] | 9.46 | 158 to 160 | 0.57 | 0.6 | 0.12 | 0.061 | 0.32 | 16.1 | 0.061 |
| Cc1ccc(S(=O)(=O)c2nc3ccccc3nc2N2CCN(C)CC2)cc1 [Compound 15, 2-(4-Methylpiperazin-1-yl)-3-(4-methylphenylsulfonyl)quinoxaline] | 0.47 | 127 to 130 | 2.4 | 0.84 | 0.69 | > 10 | 1.68 |  |  |
